Laboratory results as given in article PMC10743086, “Immunofluorescence-Based Assay for High-Throughput Analysis of Multidrug Resistance Markers in Non-Small Cell Lung Carcinoma Patient-Derived Cells” (Diagnostics, 2023).
pIC50: −log10 of the molar value.

What was measured:
Type in all cases: cell-based, human
[1] = system: ABCB1 expression in cancer cells (CK8/18+); assay: Immunofluorescence assay of ABCB1 expression in patient-derived NSCLC cultures; conditions: 7 days
Procedure: (§1) Tissue samples were collected during surgery, and the NSCLC diagnosis, histological grade, stage, necrosis, and lymph node invasion status were determined by histopathological analysis. […] The surgical specimens were placed in a sterile tube containing antibiotic-antimycotic solution (Sigma-Aldrich Chemie GmbH, Taufkirchen, Germany) and immediately transported to the research laboratory for further processing.
(§2) Upon arrival, the tissue was manually chopped with a surgical blade in a Petri dish under sterile conditions. The samples were cut into 3–5 mm pieces and further dissociated using the Tumor Dissociation Kit (Miltenyi Biotec, Bergisch Gladbach, Germany). The Tumor Dissociation Kit was used to dissociate the cells from the tumor tissue according to the manufacturer’s instructions. The samples were incubated in a 37 °C orbital shaker (KS 4000 ic control, IKA, Königswinter, Germany) at 300 rpm for 90 min. After incubation, the dissociated tissue was placed in DMEM/Ham’s F12 (1:3 ratio) growth medium supplemented with 5% fetal bovine serum (Corning, NY, USA), antibiotic-antimycotic solution, 4 µg/mL hydrocortisone (Sigma-Aldrich Chemie GmbH, Taufkirchen, Germany), 1 µg/mL insulin (Sigma-Aldrich Chemie GmbH, Taufkirchen, Germany), 10 ng/mL epidermal growth factor (BioLegend, San Diego, CA, USA), and 24 µg/mL adenine (Sigma-Aldrich Chemie GmbH, Taufkirchen, Germany). The DMEM and Ham’s F12 growth media were purchased from Sigma-Aldrich Chemie GmbH (Taufkirchen, Germany).
(§3) The dissociated tissue was cultured in T-25 cell culture flasks until cell attachment was observed before the medium was replaced. If no cell attachment was achieved within 7 days, the sample was discarded. Successful patient-derived cultures were maintained at 37 °C in a humidified atmosphere with 5% CO2 and grown to confluence before undergoing further experiments. […] Partial trypsinization was performed by detaching the fibroblast-like cells with 1 mL of 0.05% trypsin for 1 min at 37 °C, followed by 2 min at room temperature (RT).
(§4) Vinorelbine and pemetrexed were purchased from Selleckchem (Houston, TX, USA). Carboplatin, cisplatin, docetaxel, etoposide, gemcitabine, gefitinib, and paclitaxel were purchased from Sigma-Aldrich Chemie GmbH (Taufkirchen, Germany). The cisplatin, carboplatin, and gemcitabine were dissolved in sterile water, while the etoposide, docetaxel, vinorelbine, paclitaxel, gefitinib, and pemetrexed were dissolved in DMSO and stored at −20 °C. Before treatment, all the stock solutions were freshly diluted in sterile water.
(§5) The primary cells were seeded in black, clear bottom 384-well cell culture microplates (Thermo Fisher Scientific, Waltham, MA, USA) in 50 µL of cell growth medium at a density of 1000 cells per well. The compounds were administered 72 h after seeding. The treatment lasted 7 days.
(§6) The immunofluorescence assay for the quantification of MDR markers was optimized to distinguish cancer cells from stromal cells using a cytokeratin 8/18 (CK8/18) antibody cocktail. The cells were fixed with 4% paraformaldehyde for 20 min at RT and washed three times with PBS using the Wellwash Versa microplate washer (Thermo Fisher Scientific, Waltham, MA, USA). The cells were then blocked with 2% bovine serum albumin (BSA) in PBS for 1 h at RT. […] Co-immunostaining with antibodies against MDR markers was performed to detect the presence of ABCB1, ABCC1, and ABCG2 in both the cancer and stromal cells. […] The secondary antibodies were incubated with the cells at RT for 2 h in the dark. […] Finally, the cells were washed three times with PBS and stored at 4 °C in the dark before imaging.

[2] = system: NCI-H460 cells; assay: Cytotoxicity by immunofluorescence cell scoring (cell counts), NSCLC cell line; conditions: 24 h treatment
Procedure: as §4
(§7) The compounds were administered 48 h after seeding. The treatment lasted 24 h.
as §6
(§8) The fluorescently labeled cells were imaged using the ImageXpress Pico Automated Cell Imaging System (Molecular Devices, San Jose, CA, USA) with a 4x objective after determining the appropriate exposure time for each illumination filter. Analysis of the obtained images was performed using CellReporterXpress software v. 2.8.2.669 (Molecular Devices). The cytotoxicity of the compounds was determined using the Cell Scoring Analysis Protocol. […] Expression of MDR markers was determined using the Multi-Wavelength Cell Scoring Analysis Protocol.

[3] = system: MRC-5 cells; assay: Cytotoxicity by immunofluorescence cell scoring (cell counts), normal fibroblasts; conditions: 24 h treatment
Procedure: as §4, §7, §6, §8

[4] = system: ABCG2 expression in non-cancer cells (CK8/18-); assay: Immunofluorescence assay of ABCG2 expression in patient-derived NSCLC cultures, non-cancer cells; conditions: sample TR58, chemotherapeutics, 7 days
Procedure: as §1
Upon arrival, the tissue was manually chopped with a surgical blade in a Petri dish under sterile conditions. The samples were cut into 3–5 mm pieces and further dissociated using the Tumor Dissociation Kit (Miltenyi Biotec, Bergisch Gladbach, Germany). The Tumor Dissociation Kit was used to dissociate the cells from the tumor tissue according to the manufacturer’s instructions. The samples were incubated in a 37 °C orbital shaker (KS 4000 ic control, IKA, Königswinter, Germany) at 300 rpm for 90 min. […]
The immunofluorescence assay for the quantification of MDR markers was optimized to distinguish cancer cells from stromal cells using a cytokeratin 8/18 (CK8/18) antibody cocktail. […]

[5] = system: ABCC1 expression in non-cancer cells (CK8/18-); assay: Immunofluorescence assay of ABCC1 expression in patient-derived NSCLC cultures, non-cancer cells; conditions: sample TR58, chemotherapeutics, 7 days
Procedure: as §1, §2, §3, §4, §5, §6

[6] = culture TR58, cancer cells (CK8/18+)
[7] = culture TR64, cancer cells (CK8/18+)
[8] = culture TR65, cancer cells (CK8/18+)
[9] = culture TR84, cancer cells (CK8/18+)
[10] = culture TR87, cancer cells (CK8/18+)
[11] = Homo sapiens, NCI-H460, 24 h, NCI-H460 (co-culture with MRC-5)
[12] = Homo sapiens, NCI-H460, 24 h, NCI-H460 monoculture
[13] = Homo sapiens, MRC5, 24 h, MRC-5 (co-culture with NCI-H460)
[14] = Homo sapiens, MRC5, 24 h, MRC-5 monoculture

Row | SMILES | ABCB1 Expression [1, 6] | ABCB1 Expression [1, 7] | ABCB1 Expression [1, 8] | ABCB1 Expression [1, 9] | ABCB1 Expression [1, 10] | pIC50 ([2]; NCI-H460 (co-culture with MRC-5)) | pIC50 ([2]; NCI-H460 monoculture) | pIC50 ([3]; MRC-5 (co-culture with NCI-H460)) | pIC50 ([3]; MRC-5 (co-culture with NCI-H460/R)) | pIC50 ([3]; MRC-5 monoculture) | ABCG2 expression in CK8/18− cells [4] | pIC50 [2, 11] | pIC50 [2, 12] | ABCC1 expression in CK8/18− cells [5] | pIC50 [3, 13] | pIC50 [3, 14] | pIC50 ([3]; Homo sapiens, MRC5, MRC-5 (co-culture with NCI-H460/R)) | pIC50 ([3]; Homo sapiens, MRC5, 24 h, MRC-5 (co-culture with NCI-H460/R))
1 | N.N.[Cl][Pt][Cl] [Cisplatin, cisplatin] | no change | increase (An increase in ABCB1, ABCC1, or ABCG2 expression of at least 20% at a minimum of one concentration is shown in the table.) | increase (An increase in ABCB1, ABCC1, or ABCG2 expression of at least 20% at a minimum of one concentration is shown in the table.) | increase (An increase in ABCB1, ABCC1, or ABCG2 expression of at least 20% at a minimum of one concentration is shown in the table.) | increase (An increase in ABCB1, ABCC1, or ABCG2 expression of at least 20% at a minimum of one concentration is shown in the table.) | 5.01 | 5.24 | < 4.82 | < 4.82 | 4.83 | increased | – | – | – | – | – | – | –
2 | CC(=O)O[C@@]12CO[C@@H]1C[C@H](O)[C@@]1(C)C(=O)[C@H](O)C3=C(C)[C@@H](OC(=O)[C@H](O)[C@@H](NC(=O)OC(C)(C)C)c4ccccc4)C[C@@](O)([C@@H](OC(=O)c4ccccc4)[C@H]21)C3(C)C [Docetaxel, docetaxel] | no change | increase (An increase in ABCB1, ABCC1, or ABCG2 expression of at least 20% at a minimum of one concentration is shown in the table.) | no change | increase (An increase in ABCB1, ABCC1, or ABCG2 expression of at least 20% at a minimum of one concentration is shown in the table.) | increase (An increase in ABCB1, ABCC1, or ABCG2 expression of at least 20% at a minimum of one concentration is shown in the table.) | – | – | – | – | – | – | 6.19 | 6.26 | elevated | < 5.30 | < 5.30 | < 5.30 | –
3 | COc1cc([C@@H]2c3cc4c(cc3[C@@H](O[C@@H]3O[C@@H]5CO[C@@H](C)O[C@H]5[C@H](O)[C@H]3O)[C@H]3COC(=O)[C@H]23)OCO4)cc(OC)c1O [Etoposide, etoposide] | no change | increase (An increase in ABCB1, ABCC1, or ABCG2 expression of at least 20% at a minimum of one concentration is shown in the table.) | increase (An increase in ABCB1, ABCC1, or ABCG2 expression of at least 20% at a minimum of one concentration is shown in the table.) | increase (An increase in ABCB1, ABCC1, or ABCG2 expression of at least 20% at a minimum of one concentration is shown in the table.) | increase (An increase in ABCB1, ABCC1, or ABCG2 expression of at least 20% at a minimum of one concentration is shown in the table.) | – | – | – | – | – | – | 5.22 | 5.32 | – | < 4.52 | < 4.52 | – | < 4.52
